Experimental findings from patent publication US12447153B2, “HER2 mutation inhibitors” (Array BioPharma Inc., priority 2021, dated 2025) are described below.

Assay [1] addresses ErbB2 WT (Homo sapiens (Human), UniProt P04626). Briefly: ErbB Enzyme Assay (HTRF KinEASE-TK), Assay 2. It is filed as biochemical.
The target in assay [2] is ErbB2 with Exon 20 YVMA insertion (HER2-YVMA) (Homo sapiens (Human), UniProt P04626, INS775YVMA). Briefly: Cellular Phosphorylation Assay, Assay 4 (constitutive ErbB2 phosphorylation, NIH 3T3 cells). The format is cell-based.
Sequence of ErbB2 with Exon 20 YVMA insertion (HER2-YVMA) (P04626 other isoform, or with tags, fused parts or gaps ins YVMA behind 775): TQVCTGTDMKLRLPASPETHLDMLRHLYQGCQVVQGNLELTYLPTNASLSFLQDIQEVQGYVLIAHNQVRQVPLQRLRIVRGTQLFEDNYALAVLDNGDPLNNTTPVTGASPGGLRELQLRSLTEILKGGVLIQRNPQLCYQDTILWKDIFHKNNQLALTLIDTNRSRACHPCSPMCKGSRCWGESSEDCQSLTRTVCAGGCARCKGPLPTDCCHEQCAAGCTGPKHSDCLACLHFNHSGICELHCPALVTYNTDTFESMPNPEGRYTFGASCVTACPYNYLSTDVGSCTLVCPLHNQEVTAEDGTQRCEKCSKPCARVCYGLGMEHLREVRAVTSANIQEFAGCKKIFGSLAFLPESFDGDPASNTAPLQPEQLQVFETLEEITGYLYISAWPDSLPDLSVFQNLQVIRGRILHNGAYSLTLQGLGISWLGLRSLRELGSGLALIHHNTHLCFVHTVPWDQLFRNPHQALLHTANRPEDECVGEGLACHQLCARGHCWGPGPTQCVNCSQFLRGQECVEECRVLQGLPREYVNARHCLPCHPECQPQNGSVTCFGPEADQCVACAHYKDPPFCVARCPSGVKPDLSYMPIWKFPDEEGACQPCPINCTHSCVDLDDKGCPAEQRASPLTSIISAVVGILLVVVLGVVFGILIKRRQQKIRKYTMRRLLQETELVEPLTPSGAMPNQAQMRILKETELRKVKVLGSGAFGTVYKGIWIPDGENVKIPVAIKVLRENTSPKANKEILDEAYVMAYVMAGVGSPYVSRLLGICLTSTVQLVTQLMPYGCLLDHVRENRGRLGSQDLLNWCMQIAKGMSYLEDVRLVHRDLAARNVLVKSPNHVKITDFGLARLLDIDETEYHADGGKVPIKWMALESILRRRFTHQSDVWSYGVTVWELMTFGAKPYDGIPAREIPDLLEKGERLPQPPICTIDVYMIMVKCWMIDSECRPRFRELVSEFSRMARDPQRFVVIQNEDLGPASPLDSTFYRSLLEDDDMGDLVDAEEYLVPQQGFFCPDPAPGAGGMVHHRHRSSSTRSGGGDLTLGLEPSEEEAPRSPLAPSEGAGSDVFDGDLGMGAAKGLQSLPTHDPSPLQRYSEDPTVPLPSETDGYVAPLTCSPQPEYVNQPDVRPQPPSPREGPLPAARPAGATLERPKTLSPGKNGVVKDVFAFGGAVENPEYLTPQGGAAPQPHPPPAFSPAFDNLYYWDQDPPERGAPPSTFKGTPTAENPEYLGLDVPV
Assay [3] addresses EGFR wild type (EGFR WT) (Homo sapiens (Human), UniProt P00533). Briefly: Cellular Phosphorylation Assay, Assay 5 (EGF-stimulated EGFR phosphorylation, NIH 3T3 cells). It is filed as cell-based.
Assay [4] concerns the target EGFR (Homo sapiens (Human), UniProt P00533). Briefly: ErbB Enzyme Assay (HTRF KinEASE-TK), Assay 3. The format is biochemical.
[5] abbreviates: EGF-stimulated EGFR WT phosphorylation.
Where [6] appears, read: cellular ErbB2 YVMA phosphorylation.
Where [7] appears, read: cellular EGFR WT phosphorylation, EGF-stimulated.

A value given as a limit tells only on which side of the number the result lay.

Sequence of ErbB2 WT (P04626 23-1255): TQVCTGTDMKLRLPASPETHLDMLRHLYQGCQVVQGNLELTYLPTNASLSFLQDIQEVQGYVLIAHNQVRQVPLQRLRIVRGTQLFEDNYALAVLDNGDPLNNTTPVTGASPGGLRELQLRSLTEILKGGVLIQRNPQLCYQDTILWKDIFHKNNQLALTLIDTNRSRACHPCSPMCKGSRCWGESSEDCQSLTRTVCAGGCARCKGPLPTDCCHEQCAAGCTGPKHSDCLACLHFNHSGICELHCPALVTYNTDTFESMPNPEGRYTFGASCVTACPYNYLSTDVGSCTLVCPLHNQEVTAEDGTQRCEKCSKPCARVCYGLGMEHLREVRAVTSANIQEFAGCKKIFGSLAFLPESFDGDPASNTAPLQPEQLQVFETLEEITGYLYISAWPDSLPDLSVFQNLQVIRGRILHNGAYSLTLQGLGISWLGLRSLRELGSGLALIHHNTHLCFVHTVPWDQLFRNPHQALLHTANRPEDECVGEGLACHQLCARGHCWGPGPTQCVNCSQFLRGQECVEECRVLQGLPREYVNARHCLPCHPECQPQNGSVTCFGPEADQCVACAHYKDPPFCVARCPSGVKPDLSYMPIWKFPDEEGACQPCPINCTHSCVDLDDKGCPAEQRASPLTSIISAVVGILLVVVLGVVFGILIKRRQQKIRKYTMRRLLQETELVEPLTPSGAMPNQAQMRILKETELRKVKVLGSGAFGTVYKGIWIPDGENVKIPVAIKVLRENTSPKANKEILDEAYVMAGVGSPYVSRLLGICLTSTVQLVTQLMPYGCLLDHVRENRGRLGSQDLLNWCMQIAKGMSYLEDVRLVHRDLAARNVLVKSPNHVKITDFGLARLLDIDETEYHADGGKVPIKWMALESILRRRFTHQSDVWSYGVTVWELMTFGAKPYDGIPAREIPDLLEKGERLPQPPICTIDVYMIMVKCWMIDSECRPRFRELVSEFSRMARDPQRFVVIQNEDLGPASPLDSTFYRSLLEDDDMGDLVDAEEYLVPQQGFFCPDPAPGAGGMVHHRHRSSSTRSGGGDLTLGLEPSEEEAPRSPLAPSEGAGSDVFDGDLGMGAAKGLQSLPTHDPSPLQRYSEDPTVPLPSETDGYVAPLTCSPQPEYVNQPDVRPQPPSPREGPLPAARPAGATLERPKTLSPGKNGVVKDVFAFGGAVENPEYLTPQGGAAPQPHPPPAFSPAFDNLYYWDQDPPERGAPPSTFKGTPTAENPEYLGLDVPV
Sequence of EGFR (P00533 25-1210): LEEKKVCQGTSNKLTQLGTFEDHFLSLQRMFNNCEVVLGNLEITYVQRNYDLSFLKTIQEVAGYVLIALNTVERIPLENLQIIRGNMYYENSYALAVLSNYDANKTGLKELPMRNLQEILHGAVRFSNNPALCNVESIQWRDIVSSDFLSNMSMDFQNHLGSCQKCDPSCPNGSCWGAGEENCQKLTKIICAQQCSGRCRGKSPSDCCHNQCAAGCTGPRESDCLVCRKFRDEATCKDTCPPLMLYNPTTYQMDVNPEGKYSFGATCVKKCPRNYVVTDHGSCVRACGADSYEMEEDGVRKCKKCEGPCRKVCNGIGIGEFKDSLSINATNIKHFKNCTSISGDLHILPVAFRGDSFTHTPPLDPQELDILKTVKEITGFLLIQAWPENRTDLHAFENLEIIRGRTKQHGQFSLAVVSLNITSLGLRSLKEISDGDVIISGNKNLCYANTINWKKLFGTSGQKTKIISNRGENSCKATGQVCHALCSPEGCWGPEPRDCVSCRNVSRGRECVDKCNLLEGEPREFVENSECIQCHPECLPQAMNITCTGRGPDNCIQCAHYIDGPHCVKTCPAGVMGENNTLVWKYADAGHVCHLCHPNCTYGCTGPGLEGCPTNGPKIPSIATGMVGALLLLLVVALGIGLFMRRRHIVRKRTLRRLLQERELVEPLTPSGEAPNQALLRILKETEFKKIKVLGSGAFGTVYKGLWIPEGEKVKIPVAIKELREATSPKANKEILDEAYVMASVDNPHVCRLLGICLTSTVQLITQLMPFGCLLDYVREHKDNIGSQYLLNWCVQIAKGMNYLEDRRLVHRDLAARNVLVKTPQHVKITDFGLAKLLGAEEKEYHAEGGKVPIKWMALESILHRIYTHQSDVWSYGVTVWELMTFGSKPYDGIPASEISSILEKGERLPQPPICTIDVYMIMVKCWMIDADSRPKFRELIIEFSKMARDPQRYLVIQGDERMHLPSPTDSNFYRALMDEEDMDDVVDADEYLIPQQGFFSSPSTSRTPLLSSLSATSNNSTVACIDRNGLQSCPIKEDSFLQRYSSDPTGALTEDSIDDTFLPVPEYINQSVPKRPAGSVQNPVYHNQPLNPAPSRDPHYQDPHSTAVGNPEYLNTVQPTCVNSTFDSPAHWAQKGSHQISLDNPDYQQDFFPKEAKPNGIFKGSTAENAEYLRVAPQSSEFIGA
Sequence of EGFR wild type (EGFR WT) (P00533 25-1210): as above

In the case of `C=CC(=O)N1C2CC1CN(c1ccc3ncnc(Nc4cc(Cl)c(Oc5ccn6ncnc6c5)cc4F)c3n1)C2` [Example 44, 1-(3-(4-((4-([1,2,4]triazolo[1,5-a]pyridin-7-yloxy)-5-chloro-2-fluorophenyl)amino)pyrido[3,2-d]pyrimidin-6-yl)-3,6-diazabicyclo[3.1.1]heptan-6-yl)prop-2-en-1-one], the 50% inhibitory concentration (IC50) was 81.5 nM in assay [1] (ErbB2 WT enzyme), 55.7 nM in assay [2] (ErbB2 YVMA phosphorylation), at least 5000 nM in assay [3] (setting [5]) and at least 10000 nM in assay [4] (EGFR enzyme).

Consider `C=CC(=O)N1C[C@H]2C[C@@H]1[C@H](c1ccc3ncnc(Nc4ccc(Oc5ccn6ncnc6c5)c(C)c4F)c3n1)C2` [Example 372], for which the IC50 in assay [1] (ErbB2 WT enzyme assay) is 19 nM; in assay [2] (setting [6]), 52.7 nM; in assay [3] (setting [7]), 4080 nM; in assay [4] (EGFR enzyme assay) it was 1130 nM.

Consider `C=CC(=O)N1CCN(c2ccc3ncnc(Nc4ccc(Oc5ccn6ncnc6c5)c(C)c4F)c3n2)C[C@@H]1C(C)(C)C` [Example 295], for which the IC50 is 153 nM in assay [1] (ErbB2 WT enzyme assay), 79.3 nM in assay [2] (setting [6]), at least 5000 nM in assay [3] (setting [7]) and 1030 nM in assay [4] (EGFR enzyme assay).

Regarding `CCC(=O)N1CC([C@H](C)c2ccc3ncnc(Nc4ccc(Oc5ccn6ncnc6c5)c(C)c4F)c3n2)C1` (racemic) [Example 301], the IC50 in assay [1] (ErbB2 WT enzyme assay) came out at 94.8 nM; in assay [2] (setting [6]), 51.1 nM; in assay [3] (setting [7]), 2550 nM; in assay [4] (EGFR enzyme assay), 2250 nM.

As for `C=CC(=O)N1CCN(c2ccc3ncnc(Nc4ccc(Oc5ccn6ncnc6c5)c(C(F)F)c4)c3n2)CC1(C)C` [Example 451], the 50% inhibitory concentration (IC50) was found to be 106 nM in assay [1] (ErbB2 WT enzyme assay), 49.3 nM in assay [2] (setting [6]), 3340 nM in assay [3] (setting [7]) and 6260 nM in assay [4] (EGFR enzyme assay).

With `C=CC(=O)N1C[C@@H]2C[C@H]1CC[C@@H]2c1ccc2ncnc(Nc3cc(C)c(Oc4ccc5c(c4)ncn5C)cc3F)c2n1` [Example 378], the 50% inhibitory concentration (IC50) in assay [1] (ErbB2 WT enzyme assay) is 54 nM; in assay [2] (setting [6]), 66.3 nM; in assay [3] (setting [7]), at least 5000 nM; in assay [4] (EGFR enzyme assay), 4560 nM.

Consider `C=CC(=O)N1CCN(c2ccc3ncnc(Nc4ccc(Oc5ccn6ncnc6c5)c(Cl)c4F)c3n2)C[C@@H]1C(C)C` [Example 293], for which the half-inhibitory concentration (IC50) in assay [1] (ErbB2 WT enzyme assay) is 50.5 nM; in assay [2] (setting [6]), 21.2 nM; in assay [3] (setting [7]), at least 5000 nM; in assay [4] (EGFR enzyme assay), 2330 nM.

In the case of `CC#CC(=O)N1CCN(c2ccc3ncnc(Nc4ccc(Oc5ccn6ncnc6c5)c(C)c4F)c3n2)CC12CC2` [Example 182, 1-(7-(4-((4-([1,2,4]triazolo[1,5-a]pyridin-7-yloxy)-2-fluoro-3-methylphenyl)amino)pyrido[3,2-d]pyrimidin-6-yl)-4,7-diazaspiro[2.5]octan-4-yl)but-2-yn-1-one], the IC50 is 27.3 nM in assay [1] (ErbB2 WT enzyme), 76.1 nM in assay [2] (ErbB2 YVMA phosphorylation), 2730 nM in assay [3] (setting [5]) and 6140 nM in assay [4] (EGFR enzyme).

In the case of `C=CC(=O)N1C2CC1CN(c1ccc3ncnc(Nc4cc(Cl)c(Oc5cnc6c(c5)ncn6C)cc4F)c3n1)C2` [Example 241, 1-(3-(4-((5-chloro-2-fluoro-4-((3-methyl-3H-imidazo[4,5-b]pyridin-6-yl)oxy)phenyl)amino)pyrido[3,2-d]pyrimidin-6-yl)-3,6-diazabicyclo[3.1.1]heptan-6-yl)prop-2-en-1-one], the IC50 in assay [1] (ErbB2 WT enzyme) is 354 nM; in assay [2] (ErbB2 YVMA phosphorylation), 22.2 nM; in assay [3] (setting [5]), at least 5000 nM; in assay [4] (EGFR enzyme) it was at least 10000 nM.

`CC#CC(=O)N1CC[C@@H]2C[C@H]1CN2c1ccc2ncnc(Nc3cc(Cl)c(Oc4ccn5ncnc5c4)cc3F)c2n1` [Example 315]: the IC50 in assay [1] (ErbB2 WT enzyme assay) was 119 nM; in assay [2] (setting [6]) it was 68.8 nM; in assay [3] (setting [7]) it was at least 5000 nM; in assay [4] (EGFR enzyme assay), at least 10000 nM.

As for `C=CC(=O)N1C[C@@H]2C[C@H](c3ccc4ncnc(Nc5ccc(Oc6ccn7ncnc7c6)c(C)c5F)c4n3)C[C@H]1C2` [Example 391], the IC50 in assay [1] (ErbB2 WT enzyme assay) is 23.9 nM; in assay [2] (setting [6]), 19.8 nM; in assay [3] (setting [7]), 238 nM; in assay [4] (EGFR enzyme assay), 368 nM.

Turning to `C=CC(=O)N1C[C@@H]2CC[C@H]1CN2c1ccc2ncnc(Nc3ccc(Oc4ccn5ncnc5c4)c(C)c3F)c2n1` [Example 331], the IC50 in assay [1] (ErbB2 WT enzyme assay) worked out at 4.7 nM; in assay [2] (setting [6]), 3.2 nM; in assay [3] (setting [7]) it was 79 nM; in assay [4] (EGFR enzyme assay), 48.8 nM.

Consider `C=CC(=O)N1[C@@H]2CC[C@H]1C[C@@H](c1ccc3ncnc(Nc4cc(C)c(Oc5ccn6ncnc6c5)cc4F)c3n1)C2` [Example 206, 1-((1R,3r,5S)-3-(4-((4-([1,2,4]triazolo[1,5-a]pyridin-7-yloxy)-2-fluoro-5-methylphenyl)amino)pyrido[3,2-d]pyrimidin-6-yl)-8-azabicyclo[3.2.1]octan-8-yl)prop-2-en-1-one], for which the IC50 in assay [1] (ErbB2 WT enzyme) was 151 nM; in assay [2] (ErbB2 YVMA phosphorylation), 115 nM; in assay [3] (setting [5]) it was at least 5000 nM; in assay [4] (EGFR enzyme), 4770 nM.

On to `C=CC(=O)N1CCCC[C@@H](c2ccc3ncnc(Nc4ccc(Oc5ccc6c(c5)ncn6C)c(C)c4)c3n2)C1` (single isomer, unassigned) [Example 171], for which the IC50 in assay [1] (ErbB2 WT enzyme) is 13.4 nM; in assay [2] (ErbB2 YVMA phosphorylation) it was 26.3 nM; in assay [3] (setting [5]), at least 5000 nM; in assay [4] (EGFR enzyme), at least 10000 nM.

Consider `C=CC(=O)N1CCN(c2ccc3ncnc(Nc4ccc(Oc5ccc6scnc6c5)c(C)c4)c3n2)CC1(C)C` [Example 432], for which the IC50 in assay [1] (ErbB2 WT enzyme assay) turned out to be 37 nM; in assay [2] (setting [6]), 15.2 nM; in assay [3] (setting [7]), 281 nM; in assay [4] (EGFR enzyme assay) it was 210 nM.

Turning to `C=CC(=O)N1CCC(Oc2nc3c(Nc4ccc(Oc5ccn6ncnc6c5)c(C)c4F)ncnc3cc2OC)CC1` [Example 40, 1-(4-((4-((4-([1,2,4]triazolo[1,5-a]pyridin-7-yloxy)-2-fluoro-3-methylphenyl)amino)-7-methoxypyrido[3,2-d]pyrimidin-6-yl)oxy)piperidin-1-yl)prop-2-en-1-one], the IC50 in assay [1] (ErbB2 WT enzyme) was determined as 11.3 nM; in assay [2] (ErbB2 YVMA phosphorylation) it was 7.8 nM; in assay [3] (setting [5]) it was 111 nM; in assay [4] (EGFR enzyme) it was 300 nM.

Take `C=CC(=O)N1CC[C@@H]2CN(c3nc4c(Nc5ccc(Oc6ccn7ncnc7c6)c(C)c5F)ncnc4cc3OC)C[C@@H]21` [Example 154, 1-((3aR,6aR)-5-(4-((4-([1,2,4]triazolo[1,5-a]pyridin-7-yloxy)-2-fluoro-3-methylphenyl)amino)-7-methoxypyrido[3,2-d]pyrimidin-6-yl)hexahydropyrrolo[3,4-d]pyrrol-1(2H)-yl)prop-2-en-1-one]: the half-maximal inhibitory concentration (IC50) in assay [1] (ErbB2 WT enzyme) was determined as 18 nM; in assay [2] (ErbB2 YVMA phosphorylation), 67.8 nM; in assay [3] (setting [5]) it was 3070 nM; in assay [4] (EGFR enzyme), 447 nM.

As for `CC#CC(=O)N1C2CCC1CN(c1ccc3ncnc(Nc4ccc(Oc5ccn6ncnc6c5)c(C)c4F)c3n1)C2` [Example 240, 1-(3-(4-((4-([1,2,4]triazolo[1,5-a]pyridin-7-yloxy)-2-fluoro-3-methylphenyl)amino)pyrido[3,2-d]pyrimidin-6-yl)-3,8-diazabicyclo[3.2.1]octan-8-yl)but-2-yn-1-one], the IC50 in assay [1] (ErbB2 WT enzyme) was 143 nM; in assay [2] (ErbB2 YVMA phosphorylation), 92.4 nM; in assay [3] (setting [5]), 2020 nM; in assay [4] (EGFR enzyme), 4900 nM.

Take `C=CC(=O)N1CCCN(c2ccc3ncnc(Nc4cc(C)c(Oc5ccn6ncnc6c5)cc4F)c3n2)CC1(C)C` [Example 260]: the IC50 in assay [1] (ErbB2 WT enzyme assay) is 41.5 nM; in assay [2] (setting [6]) it was 114 nM; in assay [3] (setting [7]) it was at least 5000 nM; in assay [4] (EGFR enzyme assay) it was 4510 nM.

Turning to `CC#CC(=O)N1CCN(c2ccc3ncnc(Nc4ccc(Oc5ccn6ncnc6c5)c(C)c4F)c3n2)C[C@@H]1COC` [Example 180, (R)-1-(4-(4-((4-([1,2,4]triazolo[1,5-a]pyridin-7-yloxy)-2-fluoro-3-methylphenyl)amino)pyrido[3,2-d]pyrimidin-6-yl)-2-(methoxymethyl)piperazin-1-yl)but-2-yn-1-one], the IC50 in assay [1] (ErbB2 WT enzyme) is 314 nM; in assay [2] (ErbB2 YVMA phosphorylation), 73.4 nM; in assay [3] (setting [5]), at least 5000 nM; in assay [4] (EGFR enzyme), at least 10000 nM.

Turning to `C=CC(=O)N1CC[C@H]2C[C@@H]1CN2c1ccc2ncnc(Nc3ccc(Oc4ccn5ncnc5c4)c(Cl)c3F)c2n1` [Example 436], the IC50 in assay [1] (ErbB2 WT enzyme assay) was 36.3 nM; in assay [2] (setting [6]), 459 nM; in assay [3] (setting [7]) it was at least 5000 nM; in assay [4] (EGFR enzyme assay), 1920 nM.

`C=CC(=O)N1C[C@H]2CC[C@@H]1[C@H](c1ccc3ncnc(Nc4cc(C)c(Oc5cnc6c(c5)ncn6C)cc4F)c3n1)C2` [Example 424]: the IC50 is 405 nM in assay [1] (ErbB2 WT enzyme assay), 44.8 nM in assay [2] (setting [6]), at least 5000 nM in assay [3] (setting [7]) and at least 10000 nM in assay [4] (EGFR enzyme assay).

In the case of `C=CC(=O)N1CCN(c2ccc3ncnc(Nc4ccc(Oc5ccn6ncnc6c5)c(C)c4F)c3n2)C[C@@H]1C(F)F` (racemic) [Example 297], the IC50 came to 11.4 nM in assay [1] (ErbB2 WT enzyme assay), 12.8 nM in assay [2] (setting [6]), 239 nM in assay [3] (setting [7]) and 168 nM in assay [4] (EGFR enzyme assay).

Turning to `C=CC(=O)N1CCN(c2ccc3ncnc(Nc4ccc(Oc5ccn6ncnc6c5)c(C)c4F)c3n2)C[C@H]1C1CC1` [Example 283], the IC50 in assay [1] (ErbB2 WT enzyme assay) stood at 28.2 nM; in assay [2] (setting [6]), 33.6 nM; in assay [3] (setting [7]) it was 1380 nM; in assay [4] (EGFR enzyme assay) it was 4550 nM.

As to `C=CC(=O)N(C)[C@@H]1CCN(c2ccc3ncnc(Nc4cc(C)c(Oc5ccn6ncnc6c5)cc4F)c3n2)C1` [Example 350], the IC50 was 69.4 nM in assay [1] (ErbB2 WT enzyme assay), 96 nM in assay [2] (setting [6]), at least 5000 nM in assay [3] (setting [7]) and at least 10000 nM in assay [4] (EGFR enzyme assay).

Take `C=CC(=O)N1CC[C@H]2C[C@@H]1CN2c1ccc2ncnc(Nc3ccc(Oc4cnc5c(c4)ncn5C)c(C)c3F)c2n1` [Example 237, 1-((1R,5S)-6-(4-((2-fluoro-3-methyl-4-((3-methyl-3H-imidazo[4,5-b]pyridin-6-yl)oxy)phenyl)amino)pyrido[3,2-d]pyrimidin-6-yl)-2,6-diazabicyclo[3.2.1]octan-2-yl)prop-2-en-1-one]: the IC50 in assay [1] (ErbB2 WT enzyme) is 1330 nM; in assay [2] (ErbB2 YVMA phosphorylation), 256 nM; in assay [3] (setting [5]), at least 5000 nM; in assay [4] (EGFR enzyme), at least 10000 nM.
